Measurements published in patent US9121026B2 (priority 2004, dated 2015).

How the values were obtained:
Assay type in all cases: cell-based, Saccharomyces cerevisiae
[1] = test system: RE700A e PCUP-HXT7 (ECFP); assay: Growth inhibition of ECFP by 2-DG; details: 20 h 28° C., maltose, in percent of growth of RE700A
Method: (A) RE700A, ECFP and ET[PDR] were incubated 20 h at 28° C. with maltose (2% (w/v)) as the sole carbon source in the presence of the indicated 2-DG concentrations. The optical density was measured at 600 nm every 15 minutes and the integral under the growth curve was calculated. Inhibition of growth of ECFP and ET[PDR] is shown in percent of growth of RE700A. Growth of ECFP was inhibited by 39% at 0.005% (w/v) 2-DG, by 78% at 0.01% (w/v) 2-DG, by 91% at 0.03% (w/v) 2-DG and by 93% at 0.05% (w/v) 2-DG. Growth of ET[PDR] was inhibited by 52% at 0.005% (w/v) 2-DG, by 87% at 0.01% (w/v) 2-DG, by 94% at 0.03% (w/v) 2-DG and by 96% at 0.05% (w/v) 2-DG.
Strain growth: The growth of the strains in liquid medium was determined by measuring the optical density at 600 nm. To obtain growth curves, measurements were performed every 15 min. Alternatively, start and endpoint (after 12-16 h) measurements were carried out.

[2] = test system: RE700A Δpdr3 tok1::PPDR5long-HXT7; assay: Growth of RE700A Δpdr3 tok1::PPDR5long-HXT7 in the presence of 2-DG; details: RE700A Δpdr3 tok1::PPDR5long-HXT7, 20 h 28° C.
Method: (B) Relative growth of RE700A tok1::PPDR5long-HXT7, RE700A Δpdr1 tok1::PPDR5long-HXT7, RE700A Δpdr3 tok1::PPDR5long-HXT7 and RE700A Δpdr1,3 tok1::PPDR5long-HXT7 in the presence of 2-DG. Cells were incubated for 20 h at 28° C. with 2-DG at different concentrations. […] The standard error of the mean (n=5) is indicated.

[3] = test system: RE700A e PCDR1-HXT7 (ET[CDR1]); assay: Growth inhibition of ET[CDR1] by 2-DG; details: liquid media, 20 h 28° C., compared to growth in the absence of 2-DG
Method: (§1) FIG. 6: Growth inhibition of RE700A, ET[CDR1] and ET[CDR2] in the presence of increasing 2-DG concentrations after 20 h incubation at 28° C. for in liquid medium. RE700A, ET[CDR1] and ET[CDR2] were incubated 20 h at 28° C. with maltose (2% (w/v)) as the sole carbon source in the presence of increasing 2-DG concentrations in liquid medium. The optical density was measured at 600 nm semi-continuously every 15 minutes and the integral under the growth curve was calculated. Inhibition of growth is shown in percent compared to growth in the absence of 2-DG. Growth of ET[CDR1] was inhibited by 92% at a 2-DG concentration in liquid media of 0.05% (w/v), by 94% at a 2-DG concentration in liquid media of 0.075% (w/v), by 93% at a 2-DG concentration in liquid media of 0.1% (w/v) and by 95% at a 2-DG concentration of 0.2% (w/v). Growth of ET[CDR2] was inhibited by 50% at a 2-DG concentration in liquid media of 0.05% (w/v), by 70% at a 2-DG concentration in liquid media of 0.075% (w/v), by 70% at a 2-DG concentration in liquid media of 0.1% (w/v) and by 84% at a 2-DG concentration of 0.2% (w/v).
(1) Episomal screening system for inhibitors of PCDR1: S. cerevisiae strain RE700A was transformed with plasmids pY-PCDR1-HXT7 and pY-PCDR1-GFP yielding strains ET[CDR1] and CQ[CDR1] (for details see Examples 1 and 2, for the complete genotype refer to Table 1). The inhibition of growth of ET[CDR1] by 2-DG was tested. The growth of this strain was inhibited to more than 90% at a 2-DG concentration of 0.05% (w/v) (FIG. 6). To screen for inhibitors of the PCDR1, the test strain ET[CDR1] can be incubated in selective YNB medium with 2% (w/v) maltose as the carbon source and 0.05% (w/v) 2-DG. Under these non-permissive conditions the growth of the test strain ET[CDR1] was inhibited when PCDR1 was active (FIG. 6).

[4] = test system: RE700A e PCDR2-HXT7 (ET[CDR2]); assay: Growth inhibition of ET[CDR2] by 2-DG; details: liquid media, 20 h 28° C., compared to growth in the absence of 2-DG
Method: as §1
(2) Episomal screening system for inhibitors of PCDR2: S. cerevisiae strain RE700A was transformed with plasmids pY-PCDR2-HXT7 and pY-PCDR2-GFP yielding strains ET[CDR2] and CQ[CDR2] (for details see construction of strains and plasmids, for the complete genotype refer to Table 1). The inhibition of growth of ET[CDR2] by 2-DG was tested. The growth of this strain was inhibited to more than 80% at a 2-DG concentration of 0.2% (w/v) (FIG. 6). To screen for inhibitors of the PCDR2, the test strain ET[CDR2] can be incubated in selective YNB medium with 2% (w/v) maltose as the carbon source and 0.2% (w/v) 2-DG. Under these non-permissive conditions the growth of the test strain ET[CDR2] was inhibited when PCDR2 was active (FIG. 6).

SMILES: O=CC[C@@H](O)[C@H](O)[C@H](O)CO [2-DG, 2-deoxy-glucose]
- Inhibition of growth ([1]; 0.005% (w/v) 2-DG): 39%
- Inhibition of growth ([1]; 0.01% (w/v) 2-DG): 78%
- Inhibition of growth ([1]; 0.03% (w/v) 2-DG): 91%
- Inhibition of growth ([1]; 0.05% (w/v) 2-DG): 93%
- 2-DG concentration for 50% growth inhibition [2]: 0.029 % (w/v)
- Inhibition of growth ([3]; 0.075% (w/v) 2-DG): 94%
- Inhibition of growth ([3]; 0.1% (w/v) 2-DG): 93%
- Inhibition of growth ([3]; 0.2% (w/v) 2-DG): 95%
- Inhibition of growth ([4]; 0.05% (w/v) 2-DG): 50%
- Inhibition of growth ([4]; 0.075% (w/v) 2-DG): 70%
- Inhibition of growth ([4]; 0.1% (w/v) 2-DG): 70%
